Assay results: patent US20230255868A1, “SANITIZING COMPOSITION” (Conopco, Inc., d/b/a UNILEVER, priority 2020, published 2023)

System: Adenovirus
Test: ASTM E1052-20 microbicides against viruses in suspension
Assay type: cell-based
Conditions: 60 Seconds, remaining virus titre, Control 4.75
Procedure: Skin, as used herein, is meant to include skin on the arms (including underarms), face, feet, neck, chest, hands, legs, buttocks and scalp (including hair). Sanitizing as used herein means a bacteria log kill of at least 2 and a viral log inactivation of at least 2 (both achieved) in less than 3 minutes after topical application to a surface. Sanitizing precursor means a composition which is a concentrate and suitable to be diluted (or hydrated) with water to produce a sanitizing composition ready for use. Combination, as used herein means, total weight of cetrimonium chloride plus benzalkonium chloride. Skin benefit agent means an ingredient suitable to improve a skin characteristic. Surface as used herein includes skin or the surface of an inanimate object such as a table top, computer monitor, door knob, toilet seat, shopping cart handle or even a clothing garment. Surface is also meant to include the coat of an animal such as the fur on a dog and cat. As used herein, surface preferably means human skin, and especially, skin on the face and hands. The dimonium and trimonium compounds used herein are meant to include salts of the same, especially chlorides and bromides of the same. Cationic surfactant, as used herein, is meant to include polyquaternium materials, like for example, polyquaternium-6. In an embodiment of the invention, the sanitizing composition of the present invention is a home care composition like a laundry spray composition suitable to spray clothing and upholstery requiring sanitizing. The home care composition can also be a sanitizing kitchen or bathroom spray composition. […] The composition of the present invention may optionally comprise skin benefit agents added thereto such as emollients, vitamins and/or derivatives thereof, resorcinols, retinoic acid precursors, colorants, moisturizers or humectants, fragrances, sunscreens, a mixture thereof or the like. The skin benefit ingredients may be water or oil soluble. The sanitizing composition, therefore, is an aqueous based composition with a pH from 3.0 to 8.2, and the composition is water continuous. Viscosity, as used herein, is taken with a Brookfield RV spindle 6 at 20 rpm for 30 seconds at 25° C. unless noted otherwise. […] Antimicrobial benefits mean at least a log kill of 2 in under 3 minutes whereby antimicrobial assessment is measured via test method ASTM-E2783-11 (Reapproved 2016) which sets forth the procedure for measuring antimicrobial activity for water miscible compounds using a time kill procedure. Viral (or virus) inactivation is determined by assessing the impact of microbiocides against viruses as set forth in ASTM-1052-20. […]

Row | SMILES | ADENOVIRUS Inactivation, Log10 TCID 50/0.1 ml (test substance at 0.05%) | ADENOVIRUS Inactivation, Log10 TCID 50/0.1 ml (test substance at 0.1%)
1 | CCCCCCCCCCCCCCCC[n+]1ccccc1.[Cl-] [CPC, cetylpyridinum chloride] | 1.6 Log10 TCID 50/0.1 ml | 1.6 Log10 TCID 50/0.1 ml
2 | CCCCCCCCCCCCCCCC[N+](C)(C)C.[Br-] [CTAB, cetrimonium bromide] | 2.5 Log10 TCID 50/0.1 ml | 1.75 Log10 TCID 50/0.1 ml
